Assay results reported in ChEMBL document CHEMBL5352465, “Small molecules containing chalcogen elements (S, Se, Te) as new warhead to fight neglected tropical diseases” (Eur J Med Chem, 2023).

Key:
Trypanosoma brucei [1] = assay: Antitrypanosomal activity against bloodstream Trypanosoma brucei 427 strain assessed as parasite growth inhibition measured after 24 hrs by propidium iodide staining based flow cytometer method; type: functional, organism-based; details: Trypanosoma brucei, 427, 24 h
Leishmania infantum [2] = assay: Antileishmanial activity against Leishmania infantum promastigotes assessed as inhibition of parasite growth; type: functional, organism-based
Leishmania infantum [3] = assay: Antileishmanial activity against Leishmania infantum amastigotes assessed as inhibition of parasite growth; type: functional, organism-based
Trypanosoma cruzi [4] = assay: Antitrypanosomal activity against Trypanosoma cruzi Tulahuen strain trypomastigotes assessed as parasite growth inhibition incubated for 18 hrs by light microscopic analysis; type: functional
Trypanosoma cruzi [5] = assay: Antitrypanosomal activity against bloodstream Trypanosoma cruzi Y strain trypomastigotes assessed as parasite growth inhibition incubated for 24 hrs by light microscopic analysis; type: functional, organism-based
Trypanosoma cruzi [6] = assay: Antitrypanosomal activity against bloodstream Trypanosoma cruzi Y strain trypomastigotes assessed as parasite growth inhibition incubated for 24 hrs by Neubauer chamber based light microscopic analysis; type: functional, organism-based
[7] = Selectivity index, ratio of CC50 for cytotoxicity against Swiss mouse peritoneal macrophages to IC50 for antitrypanosomal activity against bloodstream Trypanosoma cruzi Y strain trypomastigotes; type: toxicity; details: read-out: Ratio CC50/IC50
Trypanosoma cruzi [8] = assay: Antitrypanosomal activity against Trypanosoma cruzi epimastigote Dm28c strain assessed as parasite growth inhibition incubated for 96 hrs by Neubauer chamber based light microscopic analysis; type: functional, organism-based
[9] = Selectivity index, ratio of CC50 for […] to ratio of IC50 for antileishmanial activity against Leishmania infantum promastigote; type: toxicity, cell-based; details: read-out: Ratio CC50/IC50
[10] = biological target: Cruzipain (Trypanosoma cruzi) (UniProt P25779); assay: Inhibition of Trypanosoma cruzi recombinant Cruzaine using Z-FR-AMC as substrate preincubated for 10 mins followed by substrate addition by fluorimeter analysis
Chain of Cruzipain (Trypanosoma cruzi) (P25779 123-467 limits assumed): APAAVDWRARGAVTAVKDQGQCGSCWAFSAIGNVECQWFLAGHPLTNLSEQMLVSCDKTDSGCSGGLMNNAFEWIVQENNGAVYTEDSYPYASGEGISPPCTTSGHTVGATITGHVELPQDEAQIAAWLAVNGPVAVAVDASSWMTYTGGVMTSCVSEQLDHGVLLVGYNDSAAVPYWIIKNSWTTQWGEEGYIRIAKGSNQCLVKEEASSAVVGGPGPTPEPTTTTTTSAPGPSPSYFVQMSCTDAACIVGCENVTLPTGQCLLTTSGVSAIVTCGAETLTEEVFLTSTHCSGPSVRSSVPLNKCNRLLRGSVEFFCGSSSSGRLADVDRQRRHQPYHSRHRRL

Trypanosoma cruzi [11] = assay: Antitrypanosomal activity against Trypanosoma cruzi epimastigote assessed as parasite growth inhibition by optical density based analysis; type: functional, organism-based
Leishmania infantum [12] = assay: Antileishmanial activity against Leishmania infantum promastigotes assessed as reduction in cell viability incubated for 24 hrs by propidium iodide staining based flow cytometry assay; type: functional, organism-based
Leishmania amazonensis [13] = assay: Antileishmanial activity against Leishmania amazonensis amastigotes assessed as inhibition of parasite growth; type: functional, organism-based
Leishmania donovani = assay: Antileishmanial activity against Leishmania donovani promastigotes assessed as inhibition of parasite growth measured after 24 hrs by Alamar blue based analysis; type: functional, organism-based
Leishmania aethiopica = assay: Antileishmanial activity against Leishmania aethiopica amastigotes assessed as inhibition of parasite growth measured after 24 hrs by Alamar blue based analysis; type: functional, organism-based
[14] = Selectivity index, ratio of LC50 for human U-937 cells to ratio of IC50 for antileishmanial activity against Leishmania panamensis MHOM/CO/87/UA140-EpiR-GFP strain promastigotes; type: toxicity; details: read-out: Ratio LC50/IC50
Leishmania panamensis [15] = assay: Antileishmanial activity against Leishmania panamensis MHOM/CO/87/UA140-EpiR-GFP strain amastigotes assessed as inhibition of parasite growth incubated for 72 hrs by flow cytometric analysis; type: functional, organism-based
[16] = Selectivity index, ratio of CC50 for human CC cells to ratio of IC50 for antileishmanial activity against Leishmania major promastigote; type: toxicity; details: read-out: Ratio CC50/IC50
Leishmania tropica = assay: Antileishmanial activity against Leishmania tropica promastigotes assessed as inhibition of parasite growth; type: functional, organism-based
[17] = test system: Trypanosoma brucei gambiense; assay: Antitrypanosomal activity against bloodstream Trypanosoma brucei gambiense assessed as parasite growth inhibition measured after 72 hrs by resazurin staining based analysis; type: functional, organism-based
[18] = Selectivity index, ratio of CC50 for rat L6 cells to IC50 for antitrypanosomal activity against bloodstream Trypanosoma brucei gambiense; type: toxicity; details: read-out: Ratio CC50/IC50
Trypanosoma brucei [19] = assay: Antitrypanosomal activity against bloodstream Trypanosoma brucei assessed as parasite growth inhibition measured after 72 hrs by resazurin staining based analysis; type: functional, organism-based
[20] = Selectivity index, ratio of CC50 for rat L6 cells to IC50 for antitrypanosomal activity against bloodstream Trypanosoma brucei; type: toxicity; details: read-out: Ratio CC50/IC50
Trypanosoma cruzi [21] = assay: Antitrypanosomal activity against Trypanosoma cruzi Y strain epimastigotes assessed as parasite growth inhibition incubated for 48 hrs by spectrophotometric analysis; type: functional, organism-based
Leishmania braziliensis = assay: Antileishmanial activity against Leishmania braziliensis promastigotes assessed as inhibition of parasite growth; type: functional, organism-based
Leishmania amazonensis [22] = assay: Antileishmanial activity against Leishmania amazonensis promastigotes assessed as inhibition of parasite growth; type: functional, organism-based
Leishmania infantum [23] = assay: Antileishmanial activity against Leishmania infantum promastigotes assessed as reduction in cell viability; type: functional, organism-based
Leishmania panamensis [24] = assay: Antileishmanial activity against Leishmania panamensis MHOM/CO/87/UA140-EpiR-GFP strain promastigotes assessed as inhibition of parasite growth incubated for 72 hrs by flow cytometric analysis; type: functional, organism-based

Work on `CC(=O)OCC1O[C@@H](OC(C)=O)[C@H]([Se][Se]C2O[C@H](COC(C)=O)[C@H](OC(C)=O)[C@H](OC(C)=O)[C@H]2OC(C)=O)[C@@H](OC(C)=O)[C@H]1OC(C)=O` (stereo partly specified) yielded an IC50 (Trypanosoma brucei [1]) of 3300 nM.

With `CC(=O)OCC1OC([Se][Se]C2O[C@H](COC(C)=O)[C@@H](OC(C)=O)[C@@H](OC(C)=O)[C@H]2OC(C)=O)[C@H](OC(C)=O)[C@@H](OC(C)=O)C1OC(C)=O` (stereo partly specified) the IC50 (Trypanosoma brucei [1]) was 2700 nM.

Work on `NC(=S)N/N=C(/C=C/c1ccccc1)c1ccccc1` yielded an IC50 (Leishmania infantum [2]) of 14.7 µM and an IC50 (Leishmania infantum [3]) of 6.88 µM.

For `CC(c1cccc2ccccc12)n1cc(CCOc2ccc(-c3ccc(-c4nc5ccc(C(=N)N)cc5[nH]4)s3)cc2)nn1` (stereo unspecified), the IC90 (Trypanosoma cruzi [4]) was 7.78 µM and the IC50 (Trypanosoma cruzi [5]) was 3070 nM.

In the case of `Fc1ccc(-c2nnc(N/N=C/c3ccccn3)s2)cc1`, the IC50 (Trypanosoma cruzi [6]) is reported as 9.3 µM and the selectivity ratio [7] is reported as 6.

In the case of `C/C(=N\NC(N)=S)c1ccc(Cl)c(Cl)c1Cl`, the IC50 (Trypanosoma cruzi [8]) is reported as 29 µM.

Work on `O=C1c2ccccc2C(=O)N1Nc1nc(-c2ccc3ccccc3c2)cs1` yielded a selectivity ratio [9] of 12.5.

Compound `NC(=S)N/N=C/c1ccc[nH]1` has an inhibition [10] of 70% and an IC50 (Trypanosoma cruzi [11]) of 27 µM.

Compound `CCc1cc(-c2csc(-c3ccc(-n4ccnc4CNCCN)cc3OCCN3CCNC3=O)n2)ccc1-c1ccccc1` has an IC50 (Leishmania infantum [12]) of 8.6 µM.

`Cc1ccc([Te]Cc2ncc(-c3ccc(S(C)(=O)=O)cc3)[se]2)cc1` showed an IC50 (Leishmania amazonensis [13]) of 6.14 µM.

`C/C(=N\NC(N)=S)c1ccc(Cl)cc1Cl` gave an IC50 (Trypanosoma cruzi [8]) of 24.8 µM.

Work on `CN(C)c1ccc(/C=N/NC(N)=S)cc1` yielded an inhibition [10] of 70%.

For `Cc1ccc(-c2cc(C3CC(c4cccs4)=NN3)n(-c3ccccc3)n2)cc1` (stereo unspecified), the IC50 (Leishmania donovani) was 2070 nM and the IC50 (Leishmania aethiopica) was 1080 nM.

`ClCCN(CCCl)c1nc(Cl)c(C2CC(c3ccc(Br)cc3)=NN2c2ccccc2)s1` (stereo unspecified) showed a selectivity ratio [14] of 1.6 and an IC50 (Leishmania panamensis [15]) of 10.9 µM.

`O=C1c2ccccc2C(=O)N1Nc1nc(-c2ccc(Cl)cc2Cl)cs1` showed a selectivity ratio [9] of 6.4.

Work on `O=[N+]([O-])c1ccc(-c2nnc(NCCCO)s2)s1` yielded a selectivity ratio [16] of 14.

For `O=C(Nc1nc2cnc(Cl)nc2s1)c1ccc(Cl)cc1`, the IC50 (Leishmania tropica) was 7.5 µM.

For `C/C(=N\NC(N)=S)c1cc(Cl)ccc1Cl`, the IC50 (Trypanosoma cruzi [8]) was 6.6 µM.

Compound `C(=N\Nc1nnc(-c2ccccn2)s1)/c1ccccn1` has an IC50 (Trypanosoma cruzi [6]) of 9.5 µM and a selectivity ratio [7] of 7.7.

In the case of `COc1cc(C2=NN(c3ccccc3)C(c3sc(N(CCCl)CCCl)nc3Cl)C2)cc(OC)c1OC` (stereo unspecified), the selectivity ratio [14] is reported as 1.48 and the IC50 (Leishmania panamensis [15]) is reported as 13.9 µM.

With `CCOC(=O)c1ccc(N/C=C2/SC(=O)N(C(Cc3ccccc3)C(=O)OCC)C2=S)cc1` (stereo unspecified) the IC50 [17] was 27 nM, the selectivity ratio [18] was 1400 and the IC50 (Trypanosoma brucei [19]) was 91 nM. The selectivity ratio [20] was 409.

For `CCOC(=O)C(Cc1ccccc1)N1C(=O)S/C(=C/Nc2cc(S(=O)(=O)N3CCOCC3)ccc2C)C1=S` (stereo unspecified), the IC50 [17] was 200 nM, the selectivity ratio [18] was over 870 and the IC50 (Trypanosoma brucei [19]) was 679 nM. For the same compound, the selectivity ratio [20] was over 255.

`NS(=O)(=O)c1ccc(O)c([N+](=O)[O-])c1` gave an IC50 (Trypanosoma cruzi [21]) of 97.7 µM.

For `O=C(CSc1nc(-c2ccccc2)cc2cc(-c3ccccc3)nn12)N/N=C/c1ccccc1`, the IC50 (Leishmania infantum [2]) was 4.92 µM and the IC50 (Leishmania infantum [3]) was 5.85 µM.

Compound `CC(=O)N1N=C(c2cccs2)CC1c1cc(-c2ccc(C)cc2)nn1-c1ccccc1` (stereo unspecified) has an IC50 (Leishmania donovani) of 160 nM and an IC50 (Leishmania aethiopica) of 2240 nM.

`NCCSc1ccnc2cc(Cl)ccc12` showed an IC50 (Leishmania braziliensis) of 39.9 µM and an IC50 (Leishmania amazonensis [22]) of 52.9 µM.

`OCCSc1ccnc2cc(Cl)ccc12` showed an IC50 (Leishmania braziliensis) of over 100 µM and an IC50 (Leishmania amazonensis [22]) of over 100 µM.

`N=C(N)c1ccc2nc(-c3ccc(-c4ccc(OCCc5cn(Cc6cccc7ccccc67)nn5)cc4)s3)[nH]c2c1` gave an IC90 (Trypanosoma cruzi [4]) of 5.78 µM and an IC50 (Trypanosoma cruzi [5]) of 2140 nM.

Compound `COCCCNc1nnc(-c2ccc([N+](=O)[O-])s2)s1` has a selectivity ratio [16] of 2.

In the case of `C/C(=N\Nc1nc(-c2ccc(Cl)c(Cl)c2)c(C)s1)c1ccccn1`, the IC50 (Leishmania infantum [23]) is reported as 2.73 µM.

With `O=C(Nc1nc2cnc(Cl)nc2s1)c1ccc(Cl)cc1Cl` the IC50 (Leishmania tropica) was 0.5 µM.

Compound `O=C1C=C(c2ccc(C(F)(F)F)cc2)S(=O)(=O)c2ccc(F)cc21` has an IC50 (Leishmania panamensis [24]) of 3.24 µM and an IC50 (Leishmania panamensis [15]) of 6.72 µM.

`CCC(C)Oc1cc(N)nc(Sc2cccc(Cl)c2)n1` (stereo unspecified) showed an IC50 (Leishmania infantum [2]) of 29.4 µM and an IC50 (Leishmania infantum [3]) of over 0.25 µM.

For `CCc1cc(-c2csc(-c3ccc(-n4ccnc4CNCCN)cc3OCCN3CCNC3=O)n2)cc2ccccc12`, the IC50 (Leishmania infantum [12]) was 5.1 µM.

`Cc1sc(N/N=C/c2ccccn2)nc1-c1ccc(Cl)c(Cl)c1` gave an IC50 (Leishmania infantum [23]) of 5.52 µM.
